Test results published in US8895738B2, “Mesoionic pyrido [1, 2-A] pyrimidine pesticides” (E I du Pont de Nemours and Company, priority 2010, dated 2014).
Structures can show the parent of a compound that is named as a salt.

What was measured:
Type in all cases: in vivo
[1] = test system: potato leafhopper (Empoasca fabae); test: Test E: control of potato leafhopper on Soleil bean plant, contact and/or systemic; conditions: 144 h, assessed after 6 days, read-out: control efficacy: mortality; for mortality at 10 ppm: sprayed at 10 ppm; for mortality at 50 ppm: sprayed at 50 ppm; for mortality at 2 ppm: sprayed at 2 ppm
Experimental: For evaluating control of potato leafhopper (Empoasca fabae) through contact and/or systemic means, the test unit consisted of a small open container with a 5-6-day-old Soleil bean plant (primary leaves emerged) inside. White sand was added to the top of the soil and one of the primary leaves was excised prior to application.
Test compounds were formulated and sprayed at 250, 50, 10 and/or 2 ppm, and the tests were replicated three times as described for Test A. After spraying, the test units were allowed to dry for 1 h before they were post-infested with 5 potato leafhoppers (18-21-day-old adults). A black, screened cap was placed on the top of each test unit, and the test units were held for 6 days in a growth chamber at 24° C. and 70% relative humidity. Each test unit was then visually assessed for insect mortality.

[2] = test system: corn planthopper (Peregrinus maidis); test: Test D: control of corn planthopper on maize plant, contact and/or systemic; conditions: 144 h, assessed after 6 days, read-out: control efficacy: mortality; for mortality at 10 ppm: sprayed at 10 ppm; for mortality at 50 ppm: sprayed at 50 ppm; for mortality at 2 ppm: sprayed at 2 ppm; for mortality at 250 ppm: sprayed at 250 ppm
Experimental: For evaluating control of corn planthopper (Peregrinus maidis) through contact and/or systemic means, the test unit consisted of a small open container with a 3-4-day-old maize plant (spike) inside. White sand was added to the top of the soil prior to application. Test compounds were formulated and sprayed at 250, 50, 10 and/or 2 ppm, and replicated three times as described for Test A. After spraying, the test units were allowed to dry for 1 h before they were post-infested with ˜15-20 nymphs (18 to 21 day old) by sprinkling them onto the sand with a salt shaker. A black, screened cap was placed on the top of each test unit, and the test units were held for 6 days in a growth chamber at 22-24° C. and 50-70% relative humidity. Each test unit was then visually assessed for insect mortality.

[3] = test system: cotton melon aphid (Aphis gossypii); test: Test C: control of cotton melon aphid on cotton plant, contact and/or systemic; conditions: for mortality at 50 ppm: sprayed at 50 ppm
From the text: For evaluating control of cotton melon aphid (Aphis gossypii) through contact and/or systemic means, the test unit consisted of a small open container with a 6-7-day-old cotton plant inside. This was pre-infested with 30-40 insects on a piece of leaf according to the cut-leaf method described for Test B, and the soil of the test unit was covered with a layer of sand.
Test compounds were formulated and sprayed at 250 and/or 50 ppm as described for Test B. The applications were replicated three times. After spraying, the test units were maintained in a growth chamber and then visually rated as described for […].

[4] = test system: rice brown planthopper (Nilaparvata lugens); test: Test H: control of rice brown planthopper on rice plant; conditions: 120 h, assessed after 5 days, read-out: control efficacy: mortality; for mortality at 10 ppm: sprayed at 10 ppm; for mortality at 2 ppm: sprayed at 2 ppm
Experimental: (§1) For evaluating control of rice brown planthopper (Nilaparvata lugens) through contact and/or systemic means, the test unit consisted of a plastic pot containing a 13-cm-tall rice plant covered with steel wire mesh (50 mesh) supported by a wire frame. A small amount of sand was added to form a good seal between the bottom of the wire mesh, the soil surface and the top edge of the plastic pot.
(§2) Test compounds were formulated and sprayed at 10, 2 and/or 0.4 ppm, and the tests were replicated three times in a manner similar to the one described for Test A. After spraying, the test units were allowed to dry for 2 h before they were post-infested with 10 brown planthoppers (3rd instar nymphs, 7-9 days post-hatch). After 5 days, each test unit was visually assessed for insect mortality.

[5] = test system: rice green leafhopper (Nephotettix virescens); test: Test G: control of rice green leafhopper on rice plant; conditions: 120 h, assessed after 5 days, read-out: control efficacy: mortality; for mortality at 50 ppm: sprayed at 50 ppm; for mortality at 10 ppm: sprayed at 10 ppm
Experimental: as §1, with “green leafhopper (Nephotettix virescens)” for “brown planthopper (Nilaparvata lugens)”
as §2, with “50, 10 and/or” for “10,”, “2” for “2 and/or 0.4”, “green leafhoppers” for “brown planthoppers”

[6] = test system: green peach aphid (Myzus persicae); test: Test B: control of green peach aphid on radish plant, contact and/or systemic; conditions: 144 h, assessed after 6 days; for mortality at 50 ppm: sprayed at 50 ppm
From the text: For evaluating control of green peach aphid (Myzus persicae) through contact and/or systemic means, the test unit consisted of a small open container with a 12-15-day-old radish plant inside. This was pre-infested by placing on a leaf of the test plant 30-40 aphids on a piece of leaf excised from a culture plant (cut-leaf method). The aphids moved onto the test plant as the leaf piece desiccated. After pre-infestation, the soil of the test unit was covered with a layer of sand.
Test compounds were formulated and sprayed at 250, 50 and/or 10 ppm as described for Test A. The applications were replicated three times. After spraying of the formulated test compound, each test unit was allowed to dry for 1 h and then a black, screened cap was placed on top. The test units were held for 6 days in a growth chamber at 19-21° C. and 50-70% relative humidity. Each test unit was then visually assessed for insect mortality.

O=c1c(-c2ccc(F)c(C(F)(F)F)c2)c([O-])[n+](Cc2cncnc2)c2ccccn12 [Compound 12, 3-[4-fluoro-3-(trifluoromethyl)phenyl]-2-hydroxy-4-oxo-1-(5-pyrimidinylmethyl)-4H-pyrido[1,2-a]pyrimidinium inner salt]
≥ 80%: mortality at 10 ppm [1] | mortality at 50 ppm [1] | mortality at 10 ppm [2] | mortality at 50 ppm [2] | mortality at 50 ppm [3] | mortality at 10 ppm [4] | mortality at 50 ppm [5]

O=c1c(-c2ccc(F)cc2)c([O-])[n+](Cc2cncnc2)c2ccccn12 [Compound 2, 3-(4-fluorophenyl)-2-hydroxy-4-oxo-1-(5-pyrimidinylmethyl)-4H-pyrido[1,2-a]pyrimidinium inner salt]
≥ 80%: mortality at 10 ppm [1] | mortality at 50 ppm [1] | mortality at 2 ppm [2] | mortality at 10 ppm [2] | mortality at 50 ppm [2] | mortality at 250 ppm [2] | mortality at 2 ppm [4] | mortality at 10 ppm [4] | mortality at 10 ppm [5] | mortality at 50 ppm [5]

O=c1c(-c2cccc(Cl)c2)c([O-])[n+](Cc2cncnc2)c2ccccn12 [Compound 19, 3-(3-chlorophenyl)-2-hydroxy-4-oxo-1-(5-pyrimidinylmethyl)-4H-pyrido[1,2-a]pyrimidinium inner salt]
≥ 80%: mortality at 50 ppm [6] | mortality at 10 ppm [1] | mortality at 50 ppm [1] | mortality at 10 ppm [2] | mortality at 50 ppm [2]

O=c1c(-c2ccc(F)cc2F)c([O-])[n+](Cc2cncnc2)c2ccccn12 [Compound 6, 3-(2,4-difluorophenyl)-2-hydroxy-4-oxo-1-(5-pyrimidinylmethyl)-4H-pyrido[1,2-a]pyrimidinium inner salt]
≥ 80%: mortality at 10 ppm [1] | mortality at 50 ppm [1]

COc1ccccc1-c1c([O-])[n+](Cc2cncnc2)c2ccccn2c1=O [Compound 4, 2-hydroxy-3-(2-methoxyphenyl)-4-oxo-1-(5-pyrimidinylmethyl)-4H-pyrido[1,2-a]pyrimidinium inner salt]
≥ 80%: mortality at 50 ppm [1] | mortality at 50 ppm [2]

O=c1c(-c2cc(C(F)(F)F)ccc2F)c([O-])[n+](Cc2cncnc2)c2ccccn12 [Compound 10, 3-[2-fluoro-5-(trifluoromethyl)phenyl]-2-hydroxy-4-oxo-1-(5-pyrimidinylmethyl)-4H-pyrido[1,2-a]pyrimidinium inner salt]
≥ 80%: mortality at 50 ppm [1] | mortality at 10 ppm [2] | mortality at 50 ppm [2] | mortality at 250 ppm [2] | mortality at 2 ppm [4] | mortality at 10 ppm [4] | mortality at 10 ppm [5] | mortality at 50 ppm [5]

O=c1c(-c2cc(Cl)cc(C(F)(F)F)c2)c([O-])[n+](Cc2cncnc2)c2ccccn12 [Compound 15, 3-[3-chloro-5-(trifluoromethyl)phenyl]-2-hydroxy-4-oxo-1-(5-pyrimidinylmethyl)-4H-pyrido[1,2-a]pyrimidinium inner salt]
≥ 80%: mortality at 10 ppm ([6]; sprayed at 10 ppm) | mortality at 50 ppm [6] | mortality at 2 ppm [1] | mortality at 10 ppm [1] | mortality at 50 ppm [1] | mortality at 2 ppm [2] | mortality at 10 ppm [2] | mortality at 50 ppm [2] | mortality at 10 ppm [4]

COc1cccc(-c2c([O-])[n+](Cc3cncnc3)c3ccccn3c2=O)c1 [Compound 5, 2-hydroxy-3-(3-methoxyphenyl)-4-oxo-1-(5-pyrimidinylmethyl)-4H-pyrido[1,2-a]pyrimidinium inner salt]
≥ 80%: mortality at 10 ppm [1] | mortality at 50 ppm [1] | mortality at 10 ppm [2] | mortality at 50 ppm [2]

O=c1c(-c2cccc(Br)c2)c([O-])[n+](Cc2cncnc2)c2ccccn12 [Compound 8]
≥ 80%: mortality at 50 ppm [1]

O=c1c(-c2cccc(OC(F)(F)F)c2)c([O-])[n+](Cc2cncnc2)c2ccccn12 [Compound 7, 2-hydroxy-4-oxo-1-(5-pyrimidinylmethyl)-3-[3-(trifluoromethoxy)phenyl]-4H-pyrido[1,2-a]pyrimidinium inner salt]
≥ 80%: mortality at 2 ppm [1] | mortality at 10 ppm [1] | mortality at 50 ppm [1] | mortality at 50 ppm [3] | mortality at 0.4 ppm ([4]; sprayed at 0.4 ppm) | mortality at 2 ppm [4] | mortality at 10 ppm [4] | mortality at 2 ppm ([5]; sprayed at 2 ppm) | mortality at 10 ppm [5] | mortality at 50 ppm [5]

O=c1c(-c2cc(Cl)c(F)c(Cl)c2)c([O-])[n+](Cc2cncnc2)c2ccccn12 [Compound 17, 3-(3,5-dichloro-4-fluorophenyl)-2-hydroxy-4-oxo-1-(5-pyrimidinylmethyl)-4H-pyrido[1,2-a]pyrimidinium inner salt]
≥ 80%: mortality at 10 ppm [2] | mortality at 50 ppm [2]

O=c1c(-c2cc(Cl)cc(Cl)c2)c([O-])[n+](Cc2cncnc2)c2ccccn12 [Compound 16, 3-(3,5-dichlorophenyl)-2-hydroxy-4-oxo-1-(5-pyrimidinylmethyl)-4H-pyrido[1,2-a]pyrimidinium inner salt]
≥ 80%: mortality at 50 ppm [6] | mortality at 10 ppm [2] | mortality at 50 ppm [2]

Cc1cc(-c2ccc(C#N)cc2C)cc(-c2c([O-])[n+](Cc3cncnc3)c3ccccn3c2=O)c1 [Compound 18, 3-(4′-cyano-5,2′-dimethyl[1,1′-biphenyl]-3-yl)-2-hydroxy-4-oxo-1-(5-pyrimidinylmethyl)-4H-pyrido[1,2-a]pyrimidinium inner salt]
≥ 80%: mortality at 50 ppm [1] | mortality at 50 ppm [2]

Cc1cccc(-c2c([O-])[n+](Cc3cncnc3)c3ccccn3c2=O)c1 [Compound 11, 2-hydroxy-3-(3-methylphenyl)-4-oxo-1-(5-pyrimidinylmethyl)-4H-pyrido[1,2-a]pyrimidinium inner salt]
≥ 80%: mortality at 10 ppm [1] | mortality at 50 ppm [1] | mortality at 10 ppm [2] | mortality at 50 ppm [2] | mortality at 10 ppm [4] | mortality at 10 ppm [5] | mortality at 50 ppm [5]

O=c1c(-c2ccccc2F)c([O-])[n+](Cc2cncnc2)c2ccccn12 [Compound 9, 3-(2-fluorophenyl)-2-hydroxy-4-oxo-1-(5-pyrimidinylmethyl)-4H-pyrido[1,2-a]pyrimidinium inner salt]
≥ 80%: mortality at 10 ppm [1] | mortality at 50 ppm [1] | mortality at 50 ppm [2] | mortality at 10 ppm [4]

O=c1c(-c2ccccc2)c([O-])[n+](Cc2cncnc2)c2ccccn12 [Compound 1, 2-hydroxy-4-oxo-3-phenyl-1-(5-pyrimidinylmethyl)-4H-pyrido[1,2-a]pyrimidinium inner salt]
≥ 80%: mortality at 50 ppm [6] | mortality at 250 ppm ([6]; sprayed at 250 ppm) | mortality at 2 ppm [1] | mortality at 10 ppm [1] | mortality at 50 ppm [1] | mortality at 250 ppm ([1]; sprayed at 250 ppm) | mortality at 10 ppm [2] | mortality at 50 ppm [2] | mortality at 250 ppm [2] | mortality at 250 ppm ([3]; sprayed at 250 ppm)
